The text below walks through data of doi:10.1101/2022.01.18.476765v1, “How a Formate Dehydrogenase Responds to Oxygen: Unexpected O2 Insensitivity of an Enzyme Harboring Tungstopterin, Selenocysteine, and [4Fe-4S] Clusters” (biorxiv, 2022).

The target of test [1] is T1, DvH-FDH2 (Nitratidesulfovibrio vulgaris, UniProt Q728X0).
T1 construct: gene fdnG-2; heterodimer, W-bis-pyranopterin, Sec, four [4Fe-4S]; Strep-tag II at C-terminus of large subunit, kept; periplasmic, Tat signal peptide on large subunit; homologous expression in DvH JW2127 (all fdh loci deleted), strain CSR21271; aerobic purification; with Formate dehydrogenase, beta (small) subunit, iron-sulfur
T1 sequence (Q728X0 36-1003): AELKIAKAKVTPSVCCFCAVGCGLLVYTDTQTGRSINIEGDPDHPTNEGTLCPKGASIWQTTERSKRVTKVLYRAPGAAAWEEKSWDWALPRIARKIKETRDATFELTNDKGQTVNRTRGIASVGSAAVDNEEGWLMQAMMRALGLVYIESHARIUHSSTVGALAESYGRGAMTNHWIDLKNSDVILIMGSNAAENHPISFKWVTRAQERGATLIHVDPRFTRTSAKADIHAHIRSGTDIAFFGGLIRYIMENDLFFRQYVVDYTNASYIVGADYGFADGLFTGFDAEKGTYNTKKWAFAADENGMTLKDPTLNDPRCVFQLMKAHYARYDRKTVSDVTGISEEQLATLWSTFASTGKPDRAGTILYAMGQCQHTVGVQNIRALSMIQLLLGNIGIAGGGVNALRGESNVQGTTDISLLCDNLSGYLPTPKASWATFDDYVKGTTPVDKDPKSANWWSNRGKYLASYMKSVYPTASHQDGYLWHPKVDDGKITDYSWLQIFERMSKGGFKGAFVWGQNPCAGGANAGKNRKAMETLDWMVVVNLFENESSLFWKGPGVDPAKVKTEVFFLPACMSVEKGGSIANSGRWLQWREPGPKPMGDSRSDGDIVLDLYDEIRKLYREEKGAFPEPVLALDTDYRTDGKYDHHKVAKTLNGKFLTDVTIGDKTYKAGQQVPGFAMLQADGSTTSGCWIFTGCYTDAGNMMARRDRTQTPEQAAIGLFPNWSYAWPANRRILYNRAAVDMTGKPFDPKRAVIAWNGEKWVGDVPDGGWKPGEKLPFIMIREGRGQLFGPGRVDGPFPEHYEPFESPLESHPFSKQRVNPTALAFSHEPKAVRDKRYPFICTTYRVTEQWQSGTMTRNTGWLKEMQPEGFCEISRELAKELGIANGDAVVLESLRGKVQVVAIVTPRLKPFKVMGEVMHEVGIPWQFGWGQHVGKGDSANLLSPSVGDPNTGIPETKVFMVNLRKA
T1 sequence (Q728X1 1-260 partner): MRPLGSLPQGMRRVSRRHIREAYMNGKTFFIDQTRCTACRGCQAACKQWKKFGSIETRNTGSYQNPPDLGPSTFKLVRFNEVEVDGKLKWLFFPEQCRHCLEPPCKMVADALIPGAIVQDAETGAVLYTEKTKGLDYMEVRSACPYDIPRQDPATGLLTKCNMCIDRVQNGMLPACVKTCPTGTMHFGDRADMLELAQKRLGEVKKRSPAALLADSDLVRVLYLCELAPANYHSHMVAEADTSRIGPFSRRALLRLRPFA
The test is described as follows: PES/DCPIP reduction at […] nm, global fit of full progress curves. It counts as biochemical. The conditions noted are these: in air; 1 mM PES / 93 μM DCPIP; 50 mM Tris pH 8.0; Km calculated from kcat and kcat/Km.

Test [2] has as its target T1, DvH-FDH2. The test is described as follows: PES/DCPIP reduction at […] nm, inhibition of formate oxidation. In kind it is biochemical. The conditions noted are these: formate with PES/DCPIP; 50 mM Tris pH 8.0; with and without O2.

Turning to `O=CO` [formate], the Km at DvH-FDH2 [1] was 4.5 ± 0.4 µM. Take `O=[N+]([O-])O` [nitrate]: on DvH-FDH2 [2], the inhibition profile entry is listed as “nitrate is far less effective”.
